Laboratory results: the supplement of paper PMC8967900

How the values were obtained:
Experiment in all cases: selective drug sensitivity score (sDSS, relative to normal bone marrow) (sDSS (score)); higher = more potent and effective on the cell line relative to normal bone marrow cells
Conditions in all cases: 72 h
ALL-PO = system: ALL-PO
HPB-ALL = system: HPB-ALL
RCH-ACV = system: RCH-ACV
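Note: ALL cell lines in 384-well plates, five doses spanning 10,000-fold, each plate scaled between vehicle and 100 µmol/L benzalkonium chloride controls, sDSS an adapted area-under-curve metric.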

Structure (SMILES) | selective drug sensitivity score (ALL-PO) | selective drug sensitivity score (HPB-ALL) | selective drug sensitivity score (RCH-ACV)
CN1CCN(C2CCC(n3cc(-c4ccc(Oc5ccccc5)cc4)c4c(N)ncnc43)CC2)CC1 (stereo not given) (top concentration 10000 nM) | 9.52 | 0.32 | 22.7
CC[C@H](CC#N)OC(=O)N[C@@H](C)c1cccc(NC(=O)Nc2ccc(-c3cnco3)c(OC)c2)c1 [AVN944] (top concentration 10000 nM) | 5.94 | 5.64 | 22
COc1ccc(-c2ccc3c(N4CCOC[C@@H]4C)nc(N4CCOC[C@@H]4C)nc3n2)cc1CO [AZD8055] (top concentration 10000 nM) | 10.6 | 0.18 | 27.4
COc1cccc2c1C(=O)c1c(O)c3c(c(O)c1C2=O)C[C@@](O)(C(=O)CO)C[C@@H]3O[C@H]1C[C@H](N)[C@@H](O)[C@H](C)O1 [Epirubicin] (top concentration 1000 nM) | -1.78 | 0.12 | 12.9
CO[C@H]1C[C@@H]2CC[C@@H](C)[C@@](O)(O2)C(=O)C(=O)N2CCCC[C@H]2C(=O)O[C@H]([C@H](C)C[C@@H]2CC[C@@H](OCCO)[C@H](OC)C2)CC(=O)[C@H](C)/C=C(\C)[C@@H](O)[C@@H](OC)C(=O)[C@H](C)C[C@H](C)/C=C/C=C/C=C/1C [Everolimus] (top concentration 100 nM) | 8.9 | -5.3 | 16
CON(C)C(=O)N1N=C(c2cc(F)ccc2F)S[C@@]1(CCCN)c1ccccc1 [Filanesib] (top concentration 1000 nM) | 6.7 | 20.3 | 16.3
CN(Cc1cnc2nc(N)nc(N)c2n1)c1ccc(C(=O)N[C@@H](CCC(=O)O)C(=O)O)cc1 [Methotrexate] (top concentration 5000 nM) | -0.12 | 5.28 | 9.48
CC[C@@]1(O)C(=O)OCc2c1cc1n(c2=O)Cc2cc3c(CN(C)C)c(O)ccc3nc2-1 [Topotecan] (top concentration 10000 nM) | 17.9 | 11.2 | 19.5
O=c1[nH]c(=O)n([C@H]2C[C@H](O)[C@@H](CO)O2)cc1C(F)(F)F [Trifluridine] (top concentration 10000 nM) | 20 | 4.66 | 15.2
Cc1sc2c(c1C)C(c1ccc(Cl)cc1)=N[C@@H](CC(=O)NCCCCNC(=O)COc1cccc3c1C(=O)N(C1CCC(=O)NC1=O)C3=O)c1nnc(C)n1-2 (stereo not given in full) [dBET1] (top concentration 10000 nM) | -5.58 | -12.7 | 0.22
